Experiments:
[1] = study in which nine of 10 patients had disease progression with prior immunotherapy; cited from earlier work
[2] = test system: urothelial cancer; assay: Best response to prior therapy before study enrolment per investigator assessment; type: in vivo, human; details: first-line, across all regimens
From the text: Across all regimens, 184 patients had received first-line platinum-based chemotherapy, 83 had received second-line chemotherapy, and 24 had received third-line chemotherapy before study enrolment.

| Molecule | Patients who responded to rogaratinib [1] [%] | Best ORR per investigator assessment to prior chemotherapy [2] [%] |
| --- | --- | --- |
| COCc1c(-c2cc3cc(C)cc(OC)c3s2)c2c(N)ncnn2c1CN1CCNC(=O)C1 [rogaratinib] | 30 |  |
| gemcitabine plus cisplatin |  | 35 |
